The structures appear in SMILES notation. A value given as a limit tells only on which side of the number the result lay.

In one data set the test system is HT1080 cells (ATCC, cat #CCL-121). Put plainly: HT1080 CellTiter-Glo 2.0 IC50 assay of working examples. To be noted: HT-1080, 24 hrs, cells plated with and without 1.5 μM ferrostatin-1, table does not say which, Table 7. The data set is classed as cell-based. The protocol: Biological evaluation of working examples A1-A47 and B1-B28 was performed in HT1080 cells (ATCC, cat #CCL-121) according to the procedure provided below.
• 1.1 Cells were harvested from flask into cell culture medium and then the cell number count was determined. • 1.2 The cells were suspended with 1.5 μM ferrostatin-1 and without ferrostatin-1. • 1.3 Cells were plated at a density of 1,500 cells per well in a 384-well black sided clear bottom plate, in 25 μL, using electronic multichannel pipette. • 1.4 Plates were covered with lid and spun for 1 min at 1000 rpm, then allowed to incubate overnight at 37° C. under 5% CO2.
• 2.1 Compounds were dissolved at 10 mM stock solution and 10 μl of diluted solution was transferred to a 384 LDV-plate (LABCYTE, LP-0200). A 3 fold, 11-point dilution was performed. • 2.2 Cells were treated with compounds by plate reformat Echo software and spun for 1 min at 1000 rpm. Then incubated at 37° C. for 24 hrs in a CO2 incubator.
• 3.1 The plates were removed from the incubator and allowed to equilibrate to room temperature, at least 30 minutes. • 3.2 CellTiter-Glo® 2.0 Reagent (Promega, G9242) was added (25 μL) to the assay plates and spun for 1 min at 1000 rpm. Then allowed to stand for about 20 minutes before reading luminescence signal on Envision. • 3.3 The IC50 calculations were determined with a nonlinear fit, variable slope (four parameters) log(inhibitor) vs. response model using GraphPad PRISM.
(ATP-based viability assays read luminescence as a measure of living cells.)
By IC50 is commonly meant the midpoint of a concentration-inhibition curve. The low end stands for higher potency, the high end for lower potency. In turn, `COc1ccc(N(Cc2ccc(F)cc2)C(=O)CCl)c(C#N)c1` [Compound A36, 2-chloro-N-(2-cyano-4-methoxy-phenyl)-N-[(4-fluorophenyl)methyl]acetamide] showed an IC50 of 1 to 10 µM.
The compound `COc1cccc(N(Cc2ccc(F)cc2)C(=O)CCl)c1` [Compound A13, 2-chloro-N-[(4-fluorophenyl)methyl]-N-(3-methoxyphenyl)acetamide] returned a half-maximal inhibitory concentration (IC50) of 0.1 to 1 µM.
`COc1cc(OC)cc(N(Cc2ccc(O)cc2)C(=O)CCl)c1` [Compound A24, 2-chloro-N-(3,5-dimethoxyphenyl)-N-[(4-hydroxyphenyl)methyl]acetamide] returned an IC50 of 0.1 to 1 µM.
The compound `O=C(CCl)N(Cc1ccc(F)cc1)c1ccc2ncccc2c1` [Compound A22, 2-chloro-N-[(4-fluorophenyl)methyl]-N-(6-quinolyl)acetamide] gave a half-inhibitory concentration (IC50) of 0.1 to 1 µM.
In turn, `COc1cc(OC)cc(N(Cc2cccc(C(F)(F)F)c2F)C(=O)CCl)c1` [Compound A31, 2-chloro-N-(3,5-dimethoxyphenyl)-N-[[2-fluoro-3-(trifluoro-methyl)phenyl]methyl]acetamide] had a half-inhibitory concentration (IC50) of 0.01 to 0.1 µM.
On to `COc1cc(OC)cc(N(Cc2cccc(F)c2F)C(=O)CCl)c1` [Compound A20, 2-chloro-N-[(2,3-difluorophenyl)methyl]-N-(3,5-dimethoxyphenyl)acetamide], for which the IC50 is 0.01 to 0.1 µM.
Turning to `Cc1cc(C)cc(N(Cc2ccc(F)cc2)C(=O)CCl)c1` [Compound A1, 2-chloro-N-(3,5-dimethylphenyl)-N-[(4-fluorophenyl)methyl]acetamide], the IC50 fell in the range of 0.1 to 1 µM.
Consider `COc1cc(OC)cc(N(Cc2ccc(F)cc2)C(=O)CCl)c1` [Compound A3, 2-chloro-N-(3,5-dimethoxyphenyl)-N-[(4-fluorophenyl)methyl]acetamide], for which the 50% inhibitory concentration (IC50) was in the range of 0.01 to 0.1 µM.
`O=C(CCl)N(Cc1ccc(F)cc1)c1cc(Cl)cc(Cl)c1` [Compound A16, 2-chloro-N-(3,5-dichlorophenyl)-N-[(4-fluorophenyl)methyl]acetamide] came in with a half-maximal inhibitory concentration (IC50) of 0.1 to 1 µM.
On to `O=C(CCl)N(Cc1ccc(F)cc1)c1cc(O)cc(Cl)c1` [Compound A34, 2-chloro-N-(3-chloro-5-hydroxy-phenyl)-N-[(4-fluorophenyl)methyl]acetamide], for which the IC50 lay within 0.1 to 1 µM.
For `COc1ccc(CN(C(=O)CCl)c2cc(C)cc(C)c2)cc1` [Compound A2, 2-chloro-N-(3,5-dimethylphenyl)-N-[(4-methoxyphenyl)methyl]acetamide], the half-inhibitory concentration (IC50) lay in the range of 0.01 to 0.1 µM.
For the compound `COc1cc(OC)cc(N(Cc2ccc(F)cc2Br)C(=O)CCl)c1` [Compound A23, N-[(2-bromo-4-fluoro-phenyl)methyl]-2-chloro-N-(3,5-dimethoxyphenyl)acetamide], the half-inhibitory concentration (IC50) lay within 0.01 to 0.1 µM.
On to `COc1cc(OC)cc(N(Cc2ccc(Br)c(F)c2F)C(=O)CCl)c1` [Compound A38, N-[(4-bromo-2,3-difluoro-phenyl)methyl]-2-chloro-N-(3,5-dimethoxyphenyl)acetamide], for which the IC50 is no more than 0.01 µM.
Still for that read-out and setting: then `COc1cccc(F)c1N(Cc1ccc(F)cc1)C(=O)CCl` [Compound A32, 2-chloro-N-(2-fluoro-6-methoxy-phenyl)-N-[(4-fluorophenyl)methyl]acetamide], with 1 to 10 µM; and `Cc1cc(N(Cc2ccc(F)cc2)C(=O)CCl)cc(C)c1O` [Compound A41, 2-chloro-N-[(4-fluorophenyl)methyl]-N-(4-hydroxy-3,5-dimethyl-phenyl)acetamide], with greater than 10 µM; and `COc1cc(OC)cc(N(Cc2ccc(F)cc2C(F)(F)F)C(=O)CCl)c1` [Compound A27, 2-chloro-N-(3,5-dimethoxyphenyl)-N-[[4-fluoro-2-(trifluoro-methyl)phenyl]methyl]acetamide], with 0.01 to 0.1 µM.
`Cc1cccc(CN(C(=O)CCl)c2cc(C)cc(C)c2)c1` [Compound A8, 2-chloro-N-(3,5-dimethylphenyl)-N-(m-tolylmethyl)acetamide] yielded an IC50 of 0.01 to 0.1 µM.

The data set is the same for the next values; noted with them: HT-1080, 24 hrs, cells plated with and without 1.5 μM ferrostatin-1, table does not say which, Table 8.
In turn, `C#CC(=O)N(c1cc(OC)cc(OC)c1)c1nc(-c2ccc(Br)cc2)cs1` [Compound B19, N-[4-(4-bromophenyl)thiazol-2-yl]-N-(3,5-dimethoxyphenyl)prop-2-ynamide] yielded an IC50 of 0.01 to 0.1 µM.
As for `Cc1cc(C)cc(N(C(=O)CCl)c2nc(-c3cccc(Br)c3)cs2)c1` [Compound B12, N-[4-(3-bromophenyl)thiazol-2-yl]-2-chloro-N-(3,5-dimethylphenyl)acetamide], the IC50 fell in the range of 0.1 to 1 µM.
`O=C(CCl)N(Cc1ccccc1)c1nc(-c2ccc(Br)cc2)cs1` [Compound B14, N-benzyl-N-[4-(4-bromophenyl)thiazol-2-yl]-2-chloro-acetamide] yielded an IC50 of 1 to 10 µM.
In turn, `O=C(CCl)N(c1ccccc1)c1nc(-c2ccc(Br)cc2)cs1` [Compound B15, N-[4-(4-bromophenyl)thiazol-2-yl]-2-chloro-N-phenyl-acetamide] displayed an IC50 greater than 10 µM.
The same measure, in the same setting: then `C=CC(=O)N(c1cc(C)cc(C)c1)c1nc(-c2ccc(Br)cc2)cs1` [Compound B7, N-[4-(4-bromophenyl)thiazol-2-yl]-N-(3,5-dimethylphenyl)prop-2-enamide], with greater than 10 µM.
Consider `COc1cccc(N(C(=O)CCl)c2nc(-c3ccc(Br)cc3)cs2)c1` [Compound B17, N-[4-(4-bromophenyl)thiazol-2-yl]-2-chloro-N-(3-methoxyphenyl)acetamide], for which the IC50 was 0.1 to 1 µM.
Still for that read-out and setting: then `COCCCN(C(=O)CCl)c1nc(-c2ccc(OC)cc2)cs1` [Compound B3, 2-chloro-N-[4-(4-methoxyphenyl)thiazol-2-yl]-N-(3-methoxypropyl)acetamide], with 1 to 10 µM.
`O=C(CCl)N(c1cc(Cl)cc(Cl)c1)c1nc(-c2ccc(Br)cc2)cs1` [Compound B20, N-[4-(4-bromophenyl)thiazol-2-yl]-2-chloro-N-(3,5-dichlorophenyl)acetamide] registered an IC50 of 1 to 10 µM.
With `C#CC(=O)N(c1cc(C)cc(C)c1)c1nc(-c2ccc(Br)cc2)cs1` [Compound B13, N-[4-(4-bromophenyl)thiazol-2-yl]-N-(3,5-dimethylphenyl)prop-2-ynamide], the half-inhibitory concentration (IC50) lay within 0.01 to 0.1 µM.
Same read-out and setting: then `Cc1cccc(N(C(=O)CCl)c2nc(-c3ccc(Br)cc3)cs2)c1` [Compound B16, N-[4-(4-bromophenyl)thiazol-2-yl]-2-chloro-N-(m-tolyl)acetamide], with greater than 10 µM; and `COc1cc(Cl)cc(N(C(=O)CCl)c2nc(-c3ccc(Br)cc3)cs2)c1` [Compound B24, N-[4-(4-bromophenyl)thiazol-2-yl]-2-chloro-N-(3-chloro-5-methoxy-phenyl)acetamide], with 0.1 to 1 µM.
`Cc1cc(C)cc(N(C(=O)CCl)c2nc(C3CCCCC3)cs2)c1` [Compound B10, 2-chloro-N-(4-cyclohexylthiazol-2-yl)-N-(3,5-dimethylphenyl)acetamide] came in with a 50% inhibitory concentration (IC50) of 0.1 to 1 µM.
Compound `C=C(F)C(=O)N(c1cc(C)cc(C)c1)c1nc(-c2ccc(Br)cc2)cs1` [Compound B23, N-[4-(4-bromophenyl)thiazol-2-yl]-N-(3,5-dimethylphenyl)-2-fluoro-prop-2-enamide] had an IC50 greater than 10 µM.
In the case of `C#CC(=O)N(c1cc(Cl)cc(OC)c1)c1nc(-c2ccc(Br)cc2)cs1` [Compound B26, N-[4-(4-bromophenyl)thiazol-2-yl]-N-(3-chloro-5-methoxy-phenyl)prop-2-ynamide], the IC50 fell in the range of 0.01 to 0.1 µM.
For the compound `CC#CC(=O)N(c1cc(C)cc(C)c1)c1nc(-c2ccc(Br)cc2)cs1` [Compound B8, N-[4-(4-bromophenyl)thiazol-2-yl]-N-(3,5-dimethylphenyl)but-2-ynamide], the IC50 is greater than 10 µM.

Another data set relates to HT-1080 fibrosarcoma cells. Put plainly: HT-1080 single-concentration cell viability screen (Cell Titer Glo). The data set is classed as cell-based. To be noted: 10 μM compound, 48 hours, duplicate, fraction of control. The source says: To identify potential covalent inhibitors of GPX4, we screened a panel of 294 diverse small molecules from the Enamine covalent inhibitor library (Catalog No. CSL-10480-0-Z-10, Enamine, Monmouth, NJ). Each compound contains either a chloroacetamide or acrylamide moiety theoretically capable of forming a covalent bond with a selenocysteine. The small molecule compounds were selected for a diversity of backbone structures. The screening protocol used the cell viability assay Cell Titer Glo® (available from Promega, Madison, WI). Cell Titer Glo® is a luminescent cell viability that determines the number of viable cells in culture by quantifying ATP, which indicates the presence of metabolically active cells. Briefly, HT-1080 fibrosarcoma cells were plated 24 hours prior to treatment with 10 µM of each compound in the screening panel. Cell Titer Glo® was used to read out cell viability after 48 hours of compound exposure. Data was collected in duplicate.
To determine whether similar molecules could offer other starting points for a medicinal chemistry campaign, we screened 95 additional compounds that contain a similar base structure to that of 8216. Briefly, HT-1080 fibrosarcoma cells were treated with 10 µM of a compound for 48 hours and cell viability was measured by Cell Titer Glo®. Data was collected in duplicate. […]
On to `O=C(CCl)N(Cc1ccccc1)c1nc(-c2ccc(Cl)cc2)cs1` [Compound Z56837054], for which the “Average relative cell viability” value stood at 0.001992.
Consider `O=C(CCl)N(CCc1ccc(F)cc1)Cc1cnc(C2CCOCC2)o1` [Compound Z4425211012], for which the “Average relative cell viability” value amounted to 0.0748.
Turning to `Cc1ccsc1CN(C(=O)CCl)C1CCN(C(C)C)C1=O` (stereo not shown) [Compound Z4323355648], the “Average relative cell viability” value amounted to 0.5691.
Regarding `O=C(CCl)N(Cc1ccco1)C1=CCCCC1` [Compound Z89264994], the “Average relative cell viability” value worked out at 0.01228.
For `O=C(CCl)N(Cc1noc2c1CCCC2)c1ccccc1F` [Compound Z4323314193], the “Average relative cell viability” value is 0.00483.

Values taken from patent US20240315994A1, “SMALL MOLECULE MODULATORS OF FERROPTOSIS” (ARPEGGIO BIOSCIENCES, INC., priority 2021, published 2024).
